Tests used:
Ldtfm [1] = molecular target: T1, Ldtfm (Enterococcus faecium, UniProt Q3Y185); assay: stopped-flow competition with nitrocefin at […] nm; format: binding; details: covalent; irreversible acylation; 22 µM enzyme, 50 µM nitrocefin, 64 µM imipenem; 100 mM sodium phosphate pH 6.0; 20 °C
T1 construct: gene HMPREF0351_12555; catalytic domain, residues 341 to 466

Ldtfm [2] = molecular target: T1, Ldtfm; assay: stopped-flow spectrophotometry at […] nm, slope of kobs against nitrocefin concentration; format: biochemical; details: covalent; reversible acylation of catalytic Cys; 11 µM enzyme; 100 mM sodium phosphate pH 6.0; 20 °C

T1 sequence (Q3Y185 entry or part of it): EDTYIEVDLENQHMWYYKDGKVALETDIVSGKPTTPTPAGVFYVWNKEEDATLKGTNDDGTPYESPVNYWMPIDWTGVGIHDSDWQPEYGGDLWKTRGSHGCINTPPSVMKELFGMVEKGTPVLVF

SMILES | stopped-flow competition with nitrocefin at 486 nm (Ldtfm [1]) | efficacy of the acylation reaction (Ldtfm [2])
C[C@@H](O)[C@H]1C(=O)N2C(C(=O)O)=C(SCCN=CN)C[C@H]12 [imipenem] | imipenem gradually replaced nitrocefin in the enzyme active site | 
O=C(Cc1cccs1)N[C@@H]1C(=O)N2C(C(=O)O)=C(/C=C/c3ccc([N+](=O)[O-])cc3[N+](=O)[O-])CS[C@H]12 [nitrocefin] |  | 24,000 ± 700 M^−1 s^−1

From paper PMC5567249, “Reversible inactivation of a peptidoglycan transpeptidase by a β-lactam antibiotic mediated by β-lactam-ring recyclization in the enzyme active site” (Scientific Reports, 2017)
